In brackets after ≈: the same amount, converted by molar mass. Where only a bound is given, the exact number is not on record here.

Test [1] concerns Mycobacterium tuberculosis. Nature of the test: Antimycobacterial activity against Mycobacterium tuberculosis wild type (WT, H37Rv). The class given is functional.
The nature of test [2]: Selectivity index (IC50/MIC) was determined. The class given is functional.
In test [3] the test system is Mycobacterium tuberculosis. As to the kind of experiment: Antimycobacterial activity against Mycobacterium tuberculosis H37Rv using Microplate Alamar Blue Assay (MABA) assay. The class given is functional.
A further test relates to Vero. Nature of the test: Cytotoxicity determined in VERO cells at concentrations less than or equal to […] or 10 times the MIC against Mycobacterium tuberculosis H37Rv. Format: functional, cell-based. The note with it: Chlorocebus sabaeus.
For a further test, the system named is Mycobacterium avium. Nature of the test: Percent inhibition against Mycobacterium avium at the dose of 12.5 uM using Microplate Alamar Blue Assay (MABA) assay. Format: functional. In general terms: Alamar Blue is a resazurin reagent that responds to reducing activity.
Test [4] concerns Mycobacterium tuberculosis. Nature of the test: Antimycobacterial activity against Mycobacterium tuberculosis Erdman using Microplate Alamar Blue Assay (MABA) assay. The class given is functional.

A word on the MIC: it is the lowest concentration found to suppress growth. For orientation: IC50 means the concentration needed to halve the response being measured. High values mean lower potency, low ones higher potency. In general, inhibition refers to the share of the control response that was lost under treatment. Read a high inhibition as a strong effect. For the compound `CN(C)S(=O)(=O)n1cnc2c(=S)[nH]cnc21`, the MIC in test [1] and in test [3] was 0.39 µg/mL (≈ 1.5 µM) in each case. Further, the Selectivity index in test [2] is over 513 SI. For the same compound, the IC50 with Vero is over 200 µg/mL. The inhibition at 12.5 µM with Mycobacterium avium turned out to be 40%.
As for `O=[N+]([O-])c1ccccc1Sn1cnc2c(S)ncnc21`, the Selectivity index in test [2] is 6.4 SI. The same compound showed a minimal inhibitory concentration (MIC) in test [3] of 0.78 µg/mL (≈ 2.55 µM). The IC50 with Vero was found to be 5 µg/mL (≈ 16.4 µM). Testing at 12.5 µM with Mycobacterium avium gave an inhibition of 75%.
For `O=S(=O)(c1ccc(Br)cc1)n1cnc2c(S)ncnc21` the same measures were 2.6 SI, 0.78 µg/mL (≈ 2.1 µM), 2 µg/mL (≈ 5.39 µM) and 81%.
In the same order, the values of `Nc1ccc(S(=O)(=O)n2cnc3c(S)ncnc32)cc1` are over 128 SI, 0.78 µg/mL (≈ 2.54 µM), over 100 µg/mL and 63%.
In the same order, the values of `Cc1ccc(S(=O)(=O)n2cnc3c(S)ncnc32)cc1` are 2.5 SI, 1.6 µg/mL (≈ 5.22 µM), 4 µg/mL (≈ 13.1 µM) and 73%.
Take `O=S(=O)(c1ccc(F)cc1)n1cnc2c(S)ncnc21`: the Selectivity index in test [2] was 0.3 SI. This compound returned an MIC in test [3] of 3.39 µg/mL (≈ 10.9 µM). Also, the IC50 in the test with Vero is 1 µg/mL (≈ 3.22 µM). In the test with Mycobacterium avium, the inhibition at 12.5 µM worked out at 70%.
In the same order, the values of `O=[N+]([O-])c1ccccc1S(=O)(=O)n1cnc2c(S)ncnc21` are 40 SI, 1.56 µg/mL (≈ 4.62 µM), 64 µg/mL (≈ 190 µM) and 50%.
As to `CO[C@H]1/C=C/O[C@@]2(C)Oc3c(C)c(O)c4c(O)c(c(/C=N/N5CCN(C)CC5)c(O)c4c3C2=O)NC(=O)/C(C)=C\C=C\[C@H](C)[C@H](O)[C@@H](C)[C@@H](O)[C@@H](C)[C@H](OC(C)=O)[C@@H]1C` [RIFAMPIN], the MIC in test [1] and in test [3] was 0.125 µg/mL (≈ 0.152 µM) throughout. Moreover, in test [2], the Selectivity index is over 8000 SI. In addition, in the test on Vero, the IC50 is over 1000 µg/mL.
Take `Nc1cccc(S(=O)(=O)n2cnc3c(S)ncnc32)c1`: the MIC in test [1] and in test [3] was 3.13 µg/mL (≈ 10.2 µM) throughout. For the same compound, the Selectivity index in test [2] is 150 SI. The compound further came in with an IC50 in the test on Vero of 468 µg/mL (≈ 1520 µM). 12.5 µM produced 68% inhibition in the test with Mycobacterium avium.
With `O=[N+]([O-])c1ccc(Sn2cnc3c(S)ncnc32)cc1`, the MIC in test [1] and in test [4] was 0.78 µg/mL (≈ 2.55 µM) each time. In test [2], this compound gave a Selectivity index of 58 SI. In the test with Vero, this compound showed a 50% inhibitory concentration (IC50) of 45 µg/mL (≈ 147 µM). In the test on Mycobacterium avium, this compound yielded an inhibition at 12.5 µM of 79%.
As for `CC(=O)Nc1ccc(S(=O)(=O)n2cnc3c(S)ncnc32)cc1`, the minimal inhibitory concentration (MIC) in test [1] and in test [3] was 0.78 µg/mL (≈ 2.23 µM) each time. The compound further came in with a Selectivity index in test [2] of over 256 SI. The IC50 in the test with Vero is over 200 µg/mL. In the test on Mycobacterium avium, this compound registered an inhibition at 12.5 µM of 57%.
In the case of `O=S(=O)(c1ccc(Cl)cc1)n1cnc2c(S)ncnc21`, the MIC in test [1] and in test [3] was 3.13 µg/mL (≈ 9.58 µM) in each case. Moreover, the Selectivity index in test [2] was 0.32 SI. For the same compound, the midpoint of inhibition in the test with Vero, the IC50, lay at 1 µg/mL (≈ 3.06 µM). In the test on Mycobacterium avium, this compound gave an inhibition at 12.5 µM of 60%.

For the origin of these results see ChEMBL document CHEMBL1134115, “Antimycobacterial activity of 9-sulfonylated/sulfenylated-6-mercaptopurine derivatives” (Bioorg Med Chem Lett, 2001).
